Measured values: ChEMBL document CHEMBL1155434, “Discovery of a new series of 5-HT1A receptor agonists” (Bioorg Med Chem Lett, 2010)

Columns and labels:
Homo sapiens = organism: Homo sapiens; assay: Selectivity ratio of pKi for human 5-HT1A receptor to pKi for human alpha1 adrenergic receptor
[1] = target: T1, Alpha-1B adrenergic receptor (Homo sapiens, UniProt P35368); assay: Displacement of [3H]prazosin from human Alpha-1B adrenergic receptor expressed in CHO cells; format: cell-based
T1 sequence (P35368 whole entry): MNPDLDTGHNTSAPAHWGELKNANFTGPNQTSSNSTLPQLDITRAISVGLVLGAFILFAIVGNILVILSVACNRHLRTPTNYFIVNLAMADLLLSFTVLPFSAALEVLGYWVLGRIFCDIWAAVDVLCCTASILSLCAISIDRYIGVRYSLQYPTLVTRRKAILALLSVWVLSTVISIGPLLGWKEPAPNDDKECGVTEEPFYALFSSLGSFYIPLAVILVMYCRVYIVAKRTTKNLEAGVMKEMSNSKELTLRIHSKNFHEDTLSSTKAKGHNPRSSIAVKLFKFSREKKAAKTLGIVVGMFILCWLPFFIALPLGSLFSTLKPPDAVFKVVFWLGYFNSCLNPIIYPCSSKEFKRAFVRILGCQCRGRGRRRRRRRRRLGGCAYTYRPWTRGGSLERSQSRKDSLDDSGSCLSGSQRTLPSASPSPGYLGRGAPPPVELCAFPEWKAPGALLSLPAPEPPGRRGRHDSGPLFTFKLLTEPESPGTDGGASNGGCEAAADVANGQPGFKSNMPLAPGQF

Thoracic aorta = assay: Inhibition of noradrenaline-induced contraction in rat thoracic aorta; format: functional
Spleen = assay: Inhibition of noradrenaline-induced contraction in rat spleen; format: functional
[2] = target: T2, Alpha-1A adrenergic receptor (Homo sapiens, UniProt P35348); assay: Displacement of [3H]prazosin from human alpha1A adrenergic receptor expressed in CHO cells; format: cell-based
T2 sequence (P35348 whole entry): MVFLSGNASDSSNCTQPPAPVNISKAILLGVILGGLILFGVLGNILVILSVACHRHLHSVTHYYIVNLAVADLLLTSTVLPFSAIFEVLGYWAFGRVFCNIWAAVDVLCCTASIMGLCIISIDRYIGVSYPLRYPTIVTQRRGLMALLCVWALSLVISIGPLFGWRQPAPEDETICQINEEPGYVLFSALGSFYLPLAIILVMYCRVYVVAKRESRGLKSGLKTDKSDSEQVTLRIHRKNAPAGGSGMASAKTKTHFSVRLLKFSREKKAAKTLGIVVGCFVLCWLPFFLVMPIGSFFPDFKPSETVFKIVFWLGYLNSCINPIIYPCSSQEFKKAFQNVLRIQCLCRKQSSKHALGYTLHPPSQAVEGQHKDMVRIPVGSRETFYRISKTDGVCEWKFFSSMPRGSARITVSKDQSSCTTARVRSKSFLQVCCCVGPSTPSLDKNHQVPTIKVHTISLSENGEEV

[3] = target: T3, 5-hydroxytryptamine receptor 1A (Homo sapiens) (UniProt P08908); assay: Agonist activity at human recombinant 5HT1A receptor expressed in human HeLa cells by [35S]GTPgammaS binding assay relative to serotonin; format: functional, cell-based
T3 sequence (whole entry): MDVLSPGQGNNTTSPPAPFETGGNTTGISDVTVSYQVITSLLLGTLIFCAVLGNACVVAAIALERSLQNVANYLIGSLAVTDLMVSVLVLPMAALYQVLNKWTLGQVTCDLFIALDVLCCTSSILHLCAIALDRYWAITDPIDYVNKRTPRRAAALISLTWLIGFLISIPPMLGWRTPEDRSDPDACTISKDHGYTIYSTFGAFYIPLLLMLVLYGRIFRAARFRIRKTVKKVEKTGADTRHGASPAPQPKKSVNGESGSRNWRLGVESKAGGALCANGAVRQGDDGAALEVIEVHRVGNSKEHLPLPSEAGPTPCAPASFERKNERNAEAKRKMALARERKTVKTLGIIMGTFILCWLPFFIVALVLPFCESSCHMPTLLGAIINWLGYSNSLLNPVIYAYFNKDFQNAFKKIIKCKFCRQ

Vas deferens = assay: Inhibition of noradrenaline-induced contraction in rat prostatic vas deferens; format: functional
[4] = target: T4, 5-hydroxytryptamine receptor 1A (Homo sapiens, UniProt P08908); assay: Displacement of [3H]8-OH-DPAT from human 5-HT1A receptor expressed in human HeLa cells; format: cell-based
T4 sequence (P08908 whole entry): T3 sequence (whole entry)

[5] = target: T3, 5-hydroxytryptamine receptor 1A (Homo sapiens); assay: Agonist activity at human recombinant 5HT1A receptor expressed in human HeLa cells by [35S]GTPgammaS binding assay; format: functional, cell-based
[6] = target: T5, Alpha-1D adrenergic receptor (Homo sapiens, UniProt P25100); assay: Displacement of [3H]prazosin from human Alpha-1D adrenergic receptor expressed in CHO cells; format: cell-based
T5 sequence (P25100 whole entry): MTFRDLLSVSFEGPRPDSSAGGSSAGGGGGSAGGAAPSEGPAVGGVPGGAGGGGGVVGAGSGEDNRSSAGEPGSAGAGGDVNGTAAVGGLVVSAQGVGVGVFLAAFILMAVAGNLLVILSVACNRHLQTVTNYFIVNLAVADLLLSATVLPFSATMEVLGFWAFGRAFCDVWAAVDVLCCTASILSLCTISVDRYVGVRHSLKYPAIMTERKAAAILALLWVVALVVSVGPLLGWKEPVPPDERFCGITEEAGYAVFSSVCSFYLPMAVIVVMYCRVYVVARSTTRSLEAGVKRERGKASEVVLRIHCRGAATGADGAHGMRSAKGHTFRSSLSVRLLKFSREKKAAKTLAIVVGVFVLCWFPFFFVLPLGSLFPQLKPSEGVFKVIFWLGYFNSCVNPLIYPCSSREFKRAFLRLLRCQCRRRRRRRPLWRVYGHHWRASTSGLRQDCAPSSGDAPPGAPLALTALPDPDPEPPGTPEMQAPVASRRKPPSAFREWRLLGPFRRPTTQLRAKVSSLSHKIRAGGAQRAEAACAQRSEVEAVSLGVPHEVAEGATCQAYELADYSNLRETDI

Row | Ratio pKi (Homo sapiens) | Ki [1] [nM] | Ki [2] [nM] | Emax [3] [%] | Ki [4] [nM] | pD2 [5] | Ki [6] [nM] | Compound | pKb (Thoracic aorta) | pKb (Spleen) | pKb (Vas deferens)
1 | 6 | 100 | 20.9 | 76 | 1.02 | 8.94 | 6.61 | COc1ccccc1OCCNCC1CSC(c2ccccc2)(c2ccccc2)O1 (racemic) | 8.68 | 8.44 | 6.71
2 | > 35 | > 1000 | > 1000 | – | 28.8 | – | > 1000 | c1ccc(-c2cccc(OCCNCC3COC(c4ccccc4)(c4ccccc4)O3)c2)cc1 (racemic) | <5 | 6.21 | 5.19
3 | – | – | – | – | – | – | – | COc1ccc(OCCNCC2COC(c3ccccc3)(c3ccccc3)O2)cc1 (racemic) | 6.94 | 6.25 | <5
4 | 1.4 | 138 | > 1000 | – | 97.7 | – | > 1000 | COc1ccc(OCCNCC2COC(c3ccccc3)(c3ccccc3)O2)cc1OC (racemic) | 6.9 | 6.01 | 5.09
5 | 1 | 20 | 2.09 | 25 | 1.7 | 9.08 | 6.31 | CC(C)Oc1ccccc1OCCNCC1COC(c2ccccc2)(c2ccccc2)O1 (racemic) | 7.59 | 7.25 | 7.25
6 | 22 | 58.9 | 91.2 | 14 | 2.63 | 5.97 | 57.5 | COc1cccc(OCCNCC2COC(c3ccccc3)(c3ccccc3)O2)c1 (racemic) | 6.61 | 5.79 | 5.75
7 | 11 | 174 | 85.1 | – | 7.59 | – | 355 | COc1cccc(OCCNCC2COC(c3ccccc3)(c3ccccc3)O2)c1OC (racemic) | 6.64 | 5.85 | 5.86
8 | 158 | 117 | 35.5 | 20 | 0.129 | 7.76 | 20.4 | COc1ccccc1OCCNCC1CSC(c2ccccc2)(c2ccccc2)S1 (racemic) | 7.5 | 5.87 | 5.8
9 | 3 | – | – | 24 | 3.55 | 8.8 | – | c1ccc(OCCNCC2COC(c3ccccc3)(c3ccccc3)O2)cc1 (racemic) | 8.37 | 5.86 | 6.16
10 | 15 | 46.8 | 19.5 | 32 | 0.603 | 7.36 | – | COc1ccccc1OCCNCC1COC(c2ccccc2)(c2ccccc2)O1 (racemic) | 8.65 | 7.36 | 7.53
11 | – | – | – | 26 | – | 9.27 | – | COc1ccccc1N1CCN(CCN2C(=O)CC3(CCCC3)CC2=O)CC1 [BMY-7378] | – | 7.48 | –
12 | 14 | 75.9 | 100 | – | 53.7 | – | 182 | COc1cccc(OC)c1OCCNCC1COC(c2ccccc2)(c2ccccc2)O1 (racemic) | 6.93 | 5.89 | 5.73
13 | 6 | 41.7 | 49 | 14 | 7.94 | 5.92 | 50.1 | COc1ccccc1CCCNCC1COC(c2ccccc2)(c2ccccc2)O1 (racemic) | 6.86 | 5.97 | 5.92

Row | Compound | Ratio pKi (Homo sapiens) | Ki [1] [nM] | Ki [2] [nM] | Emax [3] [%] | Ki [4] [nM] | pD2 [5] | Ki [6] [nM] | pKb (Thoracic aorta) | pKb (Spleen) | pKb (Vas deferens)
14 | CCOc1ccccc1OCCNCC1COC(c2ccccc2)(c2ccccc2)O1 (racemic) | 7 | 53.7 | 6.61 | 36 | 0.891 | 9.08 | 6.76 | 7.91 | 6.92 | 7.23
15 | c1ccc(-c2ccccc2OCCNCC2COC(c3ccccc3)(c3ccccc3)O2)cc1 (racemic) | 151 | > 1000 | 490 | 73 | 2.19 | 7.82 | 331 | 6.1 | 5.47 | <5
16 | c1ccc(-c2ccc(OCCNCC3COC(c4ccccc4)(c4ccccc4)O3)cc2)cc1 (racemic) | – | > 1000 | > 1000 | – | > 1000 | – | > 1000 | 5.08 | 5.84 | 5.65
17 | COc1cc(OC)cc(OCCNCC2COC(c3ccccc3)(c3ccccc3)O2)c1 (racemic) | 0.2 | 447 | 302 | – | > 1000 | – | > 1000 | 6.77 | 5.49 | 5.41
18 | CCCN(CCC)C1CCc2cccc(O)c2C1 (stereo not drawn) [8-OH-DPAT] | – | > 1000 | – | – | – | – | – | – | – | –
19 | Cc1ccccc1OCCNCC1COC(c2ccccc2)(c2ccccc2)O1 (racemic) | 3 | 240 | 117 | – | 8.32 | – | 25.7 | 6.77 | 5.73 | 6.02
